These are literature values, as cited in US4693997A, “Novel pharmaceutical composition” (priority 1982, dated 1987).

The test system of the data set is mucosa in the oesophagus. Conditions: oral tablets.
Where [1] appears, read: compared with emepronium bromide tablets.

Where a name gives a salt, the structure may show the parent alone. Read-outs that look alike come from different tables or passages of the source.

For the compound `CC1c2cccc(O)c2C(=O)C2=C(O)C3(O)C(=O)C(C(N)=O)=C(O)C(N(C)C)C3C(O)C21` (stereo not drawn) [doxycycline hydrochloride], the “oesophageal irritation and ulceration” value under setting [1] was “same type of irritation and ulceration”. As to `CC[N+](C)(C)C(C)CC(c1ccccc1)c1ccccc1` (stereo not drawn) [emepronium bromide], under “Bennett, Lancet 1977, 1, 810”, the “oesophageal irritation and ulceration” value was “severe irritation and ulceration in the oesophagus”. In the case of `CC(C)NCC(O)COc1cccc2ccccc12` (stereo not drawn) [propranolol hydrochloride], the “oesophageal irritation and ulceration” value under setting [1] is “same type of irritation and ulceration”.
